Assay results reported in ChEMBL document CHEMBL4411259, “Medicinal properties of terpenes found in Cannabis sativa and Humulus lupulus” (Eur J Med Chem, 2018).
pEC50, pIC50, pKi: −log10 of the molar value. Converted amounts (≈) assume the structure as drawn.

Experiments:
[1] = Toxicity in po dosed albino Wistar rat; type: organism-based; conditions: in vivo
RAW264.7 = test: Inhibition of LPS-induced nitric oxide production in mouse RAW264.7 cells measured after 20 hrs by Griess assay; type: functional, cell-based; conditions: RAW264.7, 20 h
T47D = test: Cytotoxicity against human T47D cells assessed as inhibition of cell proliferation after 24 hrs by WST1 assay; type: functional, cell-based
Trichophyton rubrum = test: Antimicrobial activity against Trichophyton rubrum after 7 days by microdilution method; type: functional; conditions: 168 h
HeLa = test: Cytotoxicity against human HeLa cells after 3 days by WST1 assay; type: functional, cell-based; conditions: 72 h
SW-620 = test: Cytotoxicity against human SW620 cells assessed as inhibition of cell proliferation after 24 hrs by WST1 assay; type: functional, cell-based; conditions: SW-620, 24 h
Mus musculus [2] = organism: Mus musculus; test: Sedative effect in Swiss mouse assessed as reduction in motility at plasma concentration of 27 nM; type: functional; design: scale not given: the % may be the effect or the level left
U-937 = test: Cytotoxicity against human U937 cells after 3 days by WST1 assay; type: functional, cell-based; conditions: U-937, 72 h
HepG2 [3] = test: Cytotoxicity against human HepG2 cells assessed as inhibition of cell proliferation after 24 hrs by WST1 assay; type: functional, cell-based; conditions: HepG2, 24 h
MHCC97H = test: Antiinvasive activity against human MHCC97H cells by matrigel-based transwell assay; type: functional, cell-based
SMMC-7721 = test: Antiinvasive activity against human SMMC7721 cells by matrigel-based transwell assay; type: functional, cell-based
HepG2 [4] = test: Antiinvasive activity against human HepG2 cells by matrigel-based transwell assay; type: functional, cell-based
Gardnerella vaginalis = test: Antimicrobial activity against Gardnerella vaginalis; type: functional
Mus musculus [5] = organism: Mus musculus; test: Sedative effect in Swiss mouse assessed as reduction in motility at 34 nM; type: functional; design: scale not given: the % may be the effect or the level left
Candida albicans = test: Antimicrobial activity against Candida albicans; type: functional
Escherichia coli = test: Antibacterial activity against Escherichia coli CMCC 44102 after 24 hrs by broth dilution method; type: functional
Cannabinoid receptor 2 [6] = biological target: T1, Cannabinoid receptor 2 (Homo sapiens, UniProt P34972); test: Agonist activity at recombinant human Cb2 receptor expressed in CHOK1 cells assessed as inhibition of forskolin-stimulated cAMP levels measured up to 30 mins by luminescence assay; type: functional, cell-based
T1 sequence (P34972 whole entry): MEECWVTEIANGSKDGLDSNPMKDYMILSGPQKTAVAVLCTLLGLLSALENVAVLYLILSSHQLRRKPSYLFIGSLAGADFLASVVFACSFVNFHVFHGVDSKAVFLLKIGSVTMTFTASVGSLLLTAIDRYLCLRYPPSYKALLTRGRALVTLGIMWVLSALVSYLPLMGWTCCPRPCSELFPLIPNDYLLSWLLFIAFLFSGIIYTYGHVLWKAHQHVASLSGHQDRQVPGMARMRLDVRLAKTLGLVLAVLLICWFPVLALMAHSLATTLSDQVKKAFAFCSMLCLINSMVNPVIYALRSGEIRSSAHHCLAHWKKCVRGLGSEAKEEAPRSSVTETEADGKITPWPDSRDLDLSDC

Cannabinoid receptor 2 [7] = biological target: T1, Cannabinoid receptor 2; test: Displacement of [3H]CP55940 from human CB2 expressed in CHOK1 cell membranes after 2 hrs by liquid scintillation counting method
Mus musculus [8] = organism: Mus musculus; test: Sedative effect in Swiss mouse assessed as reduction in motility; type: functional; design: scale not given: the % may be the effect or the level left
U373 MG = test: Cytoprotective activity against H2O2-induced cell death in human U373MG cells assessed as increase in cell viability preincubated for 24 hrs followed by H2O2-stimulation and measured after 30 mins by MTT assay; type: functional, cell-based, U-373MG ATCC
Leukemia cell = test: Cytotoxicity against ALL/AML patient derived primary leukemia cells after 24 hrs by LDH release assay; type: functional, cell-based; conditions: Homo sapiens
[9] = biological target: Neuronal acetylcholine receptor subunit alpha-7 (Homo sapiens, UniProt P36544); test: Antagonist activity at human alpha7 nACHR expressed in Xenopus laevis oocytes assessed as inhibition of acetylcholine-induced currents at -70 mV holding potential by electrophysiology; type: cell-based
Neuronal acetylcholine receptor subunit alpha-7, sequence (P36544 whole entry, the tested form may be a part): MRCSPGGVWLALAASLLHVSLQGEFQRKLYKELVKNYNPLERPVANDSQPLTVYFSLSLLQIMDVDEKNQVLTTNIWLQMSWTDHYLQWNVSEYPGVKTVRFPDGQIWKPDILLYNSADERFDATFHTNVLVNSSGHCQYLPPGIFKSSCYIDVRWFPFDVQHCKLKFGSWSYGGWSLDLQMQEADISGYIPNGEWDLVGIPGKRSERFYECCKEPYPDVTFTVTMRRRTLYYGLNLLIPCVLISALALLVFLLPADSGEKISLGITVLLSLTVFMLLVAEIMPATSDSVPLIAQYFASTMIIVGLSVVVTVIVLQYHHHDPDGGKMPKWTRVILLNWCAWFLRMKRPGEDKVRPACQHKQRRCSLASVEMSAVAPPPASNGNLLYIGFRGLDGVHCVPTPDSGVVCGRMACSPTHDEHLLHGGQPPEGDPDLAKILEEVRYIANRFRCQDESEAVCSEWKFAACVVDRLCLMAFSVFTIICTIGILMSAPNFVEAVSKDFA

Rattus norvegicus = test: Antiischemic stroke activity in iv dosed Sprague-Dawley rat middle cerebral artery occlusion-induced ischemia-reperfusion injury model assessed as decrease in infarct size by TTC staining based assay; type: functional
[10] = biological target: T2, Transient receptor potential cation channel subfamily A member 1 (Homo sapiens, UniProt O75762); test: Antagonist activity at TRPA1 (unknown origin) expressed in Xenopus laevis oocytes assessed as inhibition of mustard oil-induced currents by two-electrode voltage clamp method; type: cell-based
T2 sequence (O75762 whole entry): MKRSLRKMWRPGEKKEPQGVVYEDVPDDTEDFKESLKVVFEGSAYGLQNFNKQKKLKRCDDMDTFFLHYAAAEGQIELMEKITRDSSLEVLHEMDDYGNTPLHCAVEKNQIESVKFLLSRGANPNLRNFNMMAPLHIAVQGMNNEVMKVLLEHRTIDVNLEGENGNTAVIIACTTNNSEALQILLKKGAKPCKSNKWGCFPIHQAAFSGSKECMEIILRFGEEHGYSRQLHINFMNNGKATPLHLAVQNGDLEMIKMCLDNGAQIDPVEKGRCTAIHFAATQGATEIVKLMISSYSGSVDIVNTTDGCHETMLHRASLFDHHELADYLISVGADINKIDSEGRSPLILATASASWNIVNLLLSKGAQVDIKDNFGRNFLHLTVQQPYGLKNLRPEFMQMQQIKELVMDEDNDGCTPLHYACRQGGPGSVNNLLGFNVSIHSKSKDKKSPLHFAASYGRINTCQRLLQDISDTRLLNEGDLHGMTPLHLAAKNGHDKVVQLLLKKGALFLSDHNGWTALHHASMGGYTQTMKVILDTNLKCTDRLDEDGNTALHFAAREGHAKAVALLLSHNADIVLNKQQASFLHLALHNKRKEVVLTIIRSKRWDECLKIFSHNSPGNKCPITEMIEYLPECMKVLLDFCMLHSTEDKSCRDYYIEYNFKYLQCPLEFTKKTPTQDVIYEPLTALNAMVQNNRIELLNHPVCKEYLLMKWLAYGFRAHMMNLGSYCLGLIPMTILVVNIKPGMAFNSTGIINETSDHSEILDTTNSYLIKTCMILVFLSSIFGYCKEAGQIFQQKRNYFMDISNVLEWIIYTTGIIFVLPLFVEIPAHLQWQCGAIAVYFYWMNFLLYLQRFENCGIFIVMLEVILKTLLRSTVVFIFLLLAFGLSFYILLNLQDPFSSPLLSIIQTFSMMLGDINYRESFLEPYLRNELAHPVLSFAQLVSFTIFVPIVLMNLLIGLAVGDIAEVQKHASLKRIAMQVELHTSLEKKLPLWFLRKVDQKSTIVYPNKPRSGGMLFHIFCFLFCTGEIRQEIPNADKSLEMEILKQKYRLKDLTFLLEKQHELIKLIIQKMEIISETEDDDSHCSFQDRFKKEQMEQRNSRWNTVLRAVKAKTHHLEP

[11] = Inhibition of IL1beta-induced nitric oxide production in human primary chondrocytes preincubated for 30 mins followed by IL1beta-stimulation and measured after 24 hrs by Griess assay; type: functional, cell-based
[12] = biological target: T2, Transient receptor potential cation channel subfamily A member 1; test: Agonist activity at human TRPA1
[13] = Antitumor activity against human HubCCA1 cells xenografted in BALB/c nude mouse assessed as reduction in tumor size at 100 mg/kg, po administered once daily for 30 days measured every 3 consecutive days during compound dosing; type: functional; design: scale not given: the % may be the effect or the level left
[14] = Antitumor activity against human HubCCA1 cells xenografted in BALB/c nude mouse assessed as reduction in lung metastasis at 100 mg/kg, po administered once daily for 30 days measured post last dose by haematoxylin-eosin staining based assay; type: functional; design: scale not given: the % may be the effect or the level left
[15] = Antitumor activity against human HubCCA1 cells xenografted in BALB/c nude mouse assessed as mouse survival at 100 mg/kg, po administered once daily for 30 days; type: functional
[16] = Toxicity in po dosed rat; type: organism-based; conditions: in vivo
[17] = Dermal toxicity in rabbit; type: organism-based, Oryctolagus cuniculus; conditions: in vivo, topical or ocular
[18] = Toxicity in po dosed mouse; type: organism-based; conditions: in vivo
Duodenum = test: Myorelaxant activity in California White rabbit duodenum assessed as relaxation of high-potassium-induced contraction; type: functional, tissue-based; conditions: Oryctolagus cuniculus
Histoplasma capsulatum [19] = test: Antifungal activity against Histoplasma capsulatum filamentous phase after 7 days by broth microdilution method; type: functional; conditions: 168 h
Histoplasma capsulatum [20] = test: Antifungal activity against Histoplasma capsulatum yeast phase after 4 days by broth microdilution method; type: functional; conditions: 96 h
Coccidioides posadasii = test: Antifungal activity against Coccidioides posadasii filamentous phase after 48 hrs by broth microdilution method; type: functional
HL-60 = test: Cytotoxicity against human HL60 cells assessed as reduction in cell viability after 24 hrs by MTT assay; type: functional, cell-based; conditions: HL-60, 24 h
HT-29 = test: Cytotoxicity against human HT-29 cells assessed as reduction in cell viability after 24 hrs by MTT assay; type: functional, cell-based; conditions: HT-29, 24 h

CC(C)=CCC/C(C)=C/CO [GERANIOL]
LD50 [1]: 3600 mg/kg

C/C1=C\CC(C)(C)/C=C/C(=O)/C(C)=C/C(O)C1 (stereo not drawn)
pIC50 (RAW264.7): 4.85

C=C[C@@](C)(O)CCC=C(C)C
pIC50 (T47D): 3.65
MIC (Trichophyton rubrum): 260 µg/mL (≈ 1690 µM)
pIC50 (HeLa): 4.96
pIC50 (SW-620): 3.65
Activity (Mus musculus [2]): 73%
pIC50 (U-937): 5.52
pIC50 (HepG2 [3]): 3.54

C=C(C)[C@H]1CC=C(CO)CC1
pIC50 (MHCC97H): 4.00
pIC50 (SMMC-7721): 4.00
pIC50 (HepG2 [4]): 4.00

CC1=CCC(C(C)(C)O)CC1 (stereo not drawn)
MIC (Gardnerella vaginalis): 0.06 %v/v
Activity (Mus musculus [5]): 45%
MIC (Candida albicans): 0.125 %v/v
MIC (Escherichia coli): 0.78 uL/ml

C=C1CC/C=C(\C)CC[C@@H]2[C@@H]1CC2(C)C [BETA-CARYOPHYLLENE]
pEC50 (Cannabinoid receptor 2 [6]): 5.72
pKi (Cannabinoid receptor 2 [7]): 6.82

CC1=CC[C@@H]2C[C@H]1C2(C)C [1R-(+)-ALPHA-PINENE]
Activity (Mus musculus [8]): 14%
pIC50 (U373 MG): 4.10

CC(C)=CCC[C@](C)(O)[C@@H]1CC=C(C)CC1 [LEVOMENOL]
pIC50 (Leukemia cell): 4.85
pIC50 [9]: 5.51

CC1(C)C2CCC1(C)C(O)C2 (stereo not drawn) [BORNEOL]
ED50 (Rattus norvegicus): 0.36 mg/kg
pIC50 [10]: 3.52

C=CC(=C)CCC=C(C)C [MYRCENE]
IC50 [11]: 37.3 µg/mL (≈ 274 µM)

C=C1CCC[C@]2(C)CC[C@@H](C(C)(C)O)C[C@@H]12 [BETA-EUDESMOL]
pEC50 [12]: 4.48
Activity [13]: 92%
Activity [14]: 95%
Activity [15]: 64%

C=CC(C)(O)CC/C=C(\C)CCC=C(C)C (stereo not drawn) [NEROLIDOL]
LD50 [16]: 5000 mg/kg
LD50 [17]: > 2000 mg/kg
LD50 [18]: 10000 mg/kg

CC1=CCC(O)(C(C)C)CC1 (stereo not drawn) [TERPINEOL]
pIC50 (Duodenum): 3.77
MIC (Histoplasma capsulatum [19]): 30 µg/mL (≈ 194 µM)
MIC (Histoplasma capsulatum [20]): 10 µg/mL (≈ 64.8 µM)
MIC (Coccidioides posadasii): 250 µg/mL (≈ 1620 µM)
pIC50 (HL-60): 4.52

C/C1=C\CC/C(C)=C/CC(C)(C)/C=C/C1 [ALPHA-HUMULONE]
pIC50 (HT-29): 4.27
